Assay results from US11198713B2, “Agents modulating beta-catenin functions and methods thereof” (FOG PHARMACEUTICALS, INC., priority 2017, dated 2021).
Like-named read-outs stand apart in the source and are kept apart here.

Columns and labels:
[1] = target: T1, biotinylated beta-catenin (Homo sapiens, UniProt P35222); assay: Surface Plasmon Resonance (Biacore); format: binding
T1 sequence (P35222 1-781): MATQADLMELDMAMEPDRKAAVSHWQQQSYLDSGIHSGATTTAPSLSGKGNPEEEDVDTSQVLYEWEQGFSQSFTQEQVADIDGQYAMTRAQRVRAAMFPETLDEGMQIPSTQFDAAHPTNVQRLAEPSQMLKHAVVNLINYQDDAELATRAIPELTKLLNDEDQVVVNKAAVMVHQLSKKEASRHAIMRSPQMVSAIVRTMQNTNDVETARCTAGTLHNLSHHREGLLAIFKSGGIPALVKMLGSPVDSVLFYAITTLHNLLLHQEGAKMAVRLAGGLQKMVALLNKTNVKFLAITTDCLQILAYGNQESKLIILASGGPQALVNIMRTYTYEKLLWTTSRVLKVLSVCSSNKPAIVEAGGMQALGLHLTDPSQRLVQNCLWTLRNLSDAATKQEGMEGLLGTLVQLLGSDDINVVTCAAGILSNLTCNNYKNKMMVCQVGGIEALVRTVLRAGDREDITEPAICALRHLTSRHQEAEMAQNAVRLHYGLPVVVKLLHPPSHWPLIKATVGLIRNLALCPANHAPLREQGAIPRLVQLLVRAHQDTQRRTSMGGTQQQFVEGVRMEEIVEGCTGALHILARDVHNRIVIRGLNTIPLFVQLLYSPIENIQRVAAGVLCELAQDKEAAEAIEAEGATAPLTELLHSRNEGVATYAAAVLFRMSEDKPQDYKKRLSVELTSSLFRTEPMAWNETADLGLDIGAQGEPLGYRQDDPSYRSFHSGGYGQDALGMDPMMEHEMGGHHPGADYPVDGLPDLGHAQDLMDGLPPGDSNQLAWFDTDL
Experimental: Additionally or alternatively, binding to beta-catenin may be measured by Surface Plasmon Resonance. In an exemplary assay, approximately 6 nmol dried peptide diluted in buffer (50 mM Tris pH 8.0, 300 mM NaCl, 2% glycerol, 0.5 mM TCEP, 0.5 mM EDTA, 0.005% Tween-20, 1 mg/mL CM Dextran, 0.02% w/v sodium azide) was assayed on a Biacore X100 using the Biacore Biotin CAPture Kit (GE Healthcare) and biotinylated beta-catenin. Results were analyzed using the Biacore X100 Evaluation Software. […] FPO217c (Isomer 2) bound to the armadillo domain of β-catenin with a Kd of 2 nM.

[2] = target: T2, full-length beta-catenin (Axin site) (Homo sapiens, UniProt P35222); assay: Competition fluorescence polarization assay (Axin site probe); format: binding
T2 construct: 15 nM full-length beta-catenin, 20 nM FITC labeled peptide in buffer
T2 sequence (P35222 1-781): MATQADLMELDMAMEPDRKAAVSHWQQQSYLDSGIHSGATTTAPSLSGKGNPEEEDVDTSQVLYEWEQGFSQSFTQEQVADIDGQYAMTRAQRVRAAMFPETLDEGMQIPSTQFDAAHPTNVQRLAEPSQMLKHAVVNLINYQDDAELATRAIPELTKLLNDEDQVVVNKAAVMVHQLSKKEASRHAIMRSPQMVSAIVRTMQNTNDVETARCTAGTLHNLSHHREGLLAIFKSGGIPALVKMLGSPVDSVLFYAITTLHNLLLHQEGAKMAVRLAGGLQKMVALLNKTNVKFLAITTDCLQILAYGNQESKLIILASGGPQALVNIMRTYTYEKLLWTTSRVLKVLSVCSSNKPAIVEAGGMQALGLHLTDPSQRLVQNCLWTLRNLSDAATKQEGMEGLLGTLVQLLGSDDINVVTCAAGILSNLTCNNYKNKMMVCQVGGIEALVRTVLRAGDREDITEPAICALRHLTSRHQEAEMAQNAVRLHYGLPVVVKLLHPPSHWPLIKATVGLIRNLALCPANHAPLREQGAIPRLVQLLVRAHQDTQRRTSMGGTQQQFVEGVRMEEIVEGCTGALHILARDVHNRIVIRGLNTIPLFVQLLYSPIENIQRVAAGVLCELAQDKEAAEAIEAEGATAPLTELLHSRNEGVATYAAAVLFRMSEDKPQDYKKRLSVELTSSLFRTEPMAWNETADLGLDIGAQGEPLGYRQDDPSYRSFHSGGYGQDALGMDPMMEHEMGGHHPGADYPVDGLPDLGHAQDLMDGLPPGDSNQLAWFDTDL
Method in brief: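 Competition FP: 15 nM full-length β-catenin pre-incubated 5 min with 20 nM FITC-labelled stapled Axin-site peptide, then titrated peptide added (3-fold series from 5 μM) for 15 min in the dark. Buffer 50 mM Tris pH 8.0, 250 mM NaCl, 2% glycerol, 0.5 mM EDTA; duplicate reads.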

[3] = competition fluorescence polarization, Table 2, read-out: in vitro FP EC50
[4] = Biacore, biotinylated beta-catenin, read-out: Kd
[5] = competition with FITC labeled Axin-site probe, 15 nM full-length beta-catenin, read-out: FP EC50

Structure (SMILES)	Kd ([1]; Table 2, read-out: Kd by SPR) [nM]	EC50 [2, 3] [nM]	Kd [1, 4] [nM]	EC50 [2, 5] [nM]
CC[C@H](C)[C@@H]1NC(=O)[C@@](C)(NC(=O)[C@H](CCC(N)=O)NC(=O)[C@@H]2CCCN2C(C)=O)CCCCCC=CCN2CC(C(=O)N[C@@H](Cc3c[nH]cn3)C(=O)N[C@H](C(=O)N[C@@H](CCCNC(=N)N)C(=O)N[C@@H](CCCNC(=N)N)C(=O)N[C@H](C(=O)N[C@@H](Cc3c[nH]c4ccccc34)C(=O)N[C@@H](CCCNC(=N)N)C(N)=O)C(C)C)C(C)C)(C2)NC(=O)[C@H](CC(=O)O)NC(=O)[C@H](CC(C)C)NC1=O (single isomer, unassigned) [FP-0738a]			~43	200
CC[C@H](C)[C@@H]1NC(=O)[C@](C)(NC(=O)[C@H](C)NC(=O)[C@@H]2CCCN2C(C)=O)CCCCCCC=CCOC(=O)N2CC[C@@](C(=O)N[C@@H](CCCNC(=N)N)C(=O)N[C@H](C(=O)N[C@@H](Cc3c[nH]c4ccccc34)C(N)=O)C(C)C)(C2)NC(=O)[C@H](C(C)C)NC(=O)[C@H](Cc2c[nH]cn2)NC(=O)[C@H](C)NC(=O)[C@H](CC(=O)O)NC(=O)[C@H](CC(C)C)NC1=O [FP0025c, Ac-P-A-R8-I-L-D-A-H-V-MB-R-V-W-NH2]		< 100	15	< 100
CC[C@H](C)[C@@H]1NC(=O)[C@H](Cc2c[nH]cn2)NC(=O)[C@H](C)NC(=O)[C@H](CC(=O)O)NC(=O)[C@H](CC(C)C)NC(=O)[C@H]([C@@H](C)CC)NC(=O)[C@](C)(NC(=O)[C@H](C)NC(C)=O)CCCCCCC=CCOC(=O)N(C)C[C@@](C)(C(=O)N[C@@H](CCCNC(=N)N)C(=O)N[C@H](C(=O)N[C@@H](Cc2c[nH]c3ccccc23)C(N)=O)C(C)C)NC1=O [FP0338c, Ac-A-R8-I-L-D-A-H-I-MD-R-V-W-NH2]	3	100 to 500		

More lines, now with the values ahead:

Kd ([1]; Table 2, read-out: Kd by SPR) [nM]	EC50 [2, 3] [nM]	Kd [1, 4] [nM]	EC50 [2, 5] [nM]	Structure (SMILES)
13	< 100			CC[C@H](C)[C@@H]1NC(=O)[C@](C)(NC(=O)[C@H](CCC(N)=O)NC(=O)[C@@H]2CCCN2C(C)=O)CCC=CCOC(=O)N2CC[C@](C(=O)N[C@@H](Cc3c[nH]cn3)C(=O)N[C@H](C(=O)N[C@@H](CCCNC(=N)N)C(=O)N[C@@H](CCCNC(=N)N)C(=O)N[C@H](C(=O)N[C@@H](Cc3c[nH]c4ccccc34)C(=O)N[C@@H](CCCNC(=N)N)C(N)=O)C(C)C)C(C)C)(C2)NC(=O)[C@H](CC(=O)O)NC(=O)[C@H](CC(C)C)NC1=O (single isomer, unassigned) [FP0765c, Ac-P-Q-R4-I-L-D-MC-H-V-R-R-V-W-R-NH2]
7	< 100			CC[C@H](C)[C@@H]1NC(=O)[C@](C)(NC(=O)[C@H](CCC(N)=O)NC(=O)[C@@H]2CCCN2C(C)=O)CCCC=CCOC(=O)N2CC[C@](C(=O)N[C@@H](Cc3c[nH]cn3)C(=O)N[C@H](C(=O)N[C@@H](CCCNC(=N)N)C(=O)N[C@@H](CCCNC(=N)N)C(=O)N[C@H](C(=O)N[C@@H](Cc3c[nH]c4ccccc34)C(=O)N[C@@H](CCCNC(=N)N)C(N)=O)C(C)C)C(C)C)(C2)NC(=O)[C@H](CC(=O)O)NC(=O)[C@H](CC(C)C)NC1=O (single isomer, unassigned) [FP0766c, Ac-P-Q-R5-I-L-D-MC-H-V-R-R-V-W-R-NH2]
